Assay results published in patent publication US20250163047A1, “HETEROCYCLIC COMPOUNDS, COMPOSITIONS THEREOF, AND METHODS OF TREATMENT THEREWITH” (BeiGene, Ltd., priority 2022, published 2025).

What was measured:
Cbl-b (aa36-427) = molecular target: T1, Cbl-b (aa36-427) (Homo sapiens, UniProt Q13191); test: Co-expressed Cbl-b with BirA biochemical assay (CBLB/E2-Ub binding, HTRF); conditions: 0.6 nM Cbl-b co-expressed with BirA, HTRF; read-out: co-express CBLB/E2-Ub-binding assay IC50
T1 construct: Cbl-b (aa36-427, in-house); made in house
T1 sequence (Q13191 36-427): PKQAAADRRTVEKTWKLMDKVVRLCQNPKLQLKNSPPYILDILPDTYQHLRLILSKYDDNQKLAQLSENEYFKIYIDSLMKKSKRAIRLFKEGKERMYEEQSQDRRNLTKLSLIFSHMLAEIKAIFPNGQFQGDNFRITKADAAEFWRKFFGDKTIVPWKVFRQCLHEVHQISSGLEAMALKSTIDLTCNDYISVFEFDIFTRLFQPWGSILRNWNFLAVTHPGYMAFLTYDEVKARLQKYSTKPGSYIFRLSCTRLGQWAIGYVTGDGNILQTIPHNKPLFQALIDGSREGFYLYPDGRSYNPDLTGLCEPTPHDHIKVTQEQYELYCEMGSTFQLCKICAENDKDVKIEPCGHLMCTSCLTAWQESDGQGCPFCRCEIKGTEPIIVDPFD
From the text: (§1) The assay in the absence of a Cbl-b/Cbl inhibitor, where phosphorylation of Cbl-b/Cbl by the Src kinase allows UbcH5B-Ub to bind to Cbl-b/Cbl and brings the Bodipy-Fluorescein tagged ubiquitin in proximity to the streptavidin-terbium bound to the N-terminal biotinylated Avi-tagged Cbl-b/Cbl. […] The lack of a FRET signal indicates Cbl-b/Cbl is inhibited by the Cbl-b/Cbl inhibitor.

Cbl (aa49-434) = molecular target: T2, Cbl (aa49-434) (Homo sapiens, UniProt P22681); test: Co-expressed Cbl with BirA biochemical assay (CBL/E2-Ub binding, HTRF); conditions: 0.6 nM Cbl co-expressed with BirA, read-out: co-express CBL/E2-Ub-binding assay IC50
T2 construct: Cbl (aa49-434, in-house); made in house
T2 sequence (P22681 49-434): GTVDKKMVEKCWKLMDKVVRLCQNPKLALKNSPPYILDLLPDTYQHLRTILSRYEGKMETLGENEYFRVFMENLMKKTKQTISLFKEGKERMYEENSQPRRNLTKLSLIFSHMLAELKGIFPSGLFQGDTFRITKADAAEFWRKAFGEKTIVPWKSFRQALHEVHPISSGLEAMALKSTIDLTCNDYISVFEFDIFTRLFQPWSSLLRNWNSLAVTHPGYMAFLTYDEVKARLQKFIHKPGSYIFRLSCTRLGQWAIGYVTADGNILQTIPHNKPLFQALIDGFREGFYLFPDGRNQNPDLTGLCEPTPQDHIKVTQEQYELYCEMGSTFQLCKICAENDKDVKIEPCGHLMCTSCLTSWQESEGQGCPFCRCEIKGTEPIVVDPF
From the text: as §1

| IC50 (Cbl-b (aa36-427)) | IC50 (Cbl (aa49-434)) | SMILES |
| --- | --- | --- |
| 2.56 nM | 19.7 nM | C[C@H]1CCCN(Cc2cc(C(=O)Nc3cccc(C4(c5nncn5C)CC(CC#N)C4)c3)nc3c2CCC3(C)C)C1 (stereo partly drawn) [Compound C7, (S)—N-(3-(3-(cyanomethyl)-1-(4-methyl-4H-1,2,4-triazol-3-yl)cyclobutyl)phenyl)-7,7-dimethyl-4-((3-methylpiperidin-1-yl)methyl)-6,7-dihydro-5H-cyclopenta[b]pyridine-2-carboxamide] |
| 0.2 nM | 0.9 nM | Cn1cnnc1[C@]1(c2cccc(NC(=O)c3cc(CNC4(C)CC4)cn4c(Cl)cnc34)c2)C[C@H](CC#N)C1 [Compound A41, 3-chloro-N-(3-((1s, 3s)-3-(cyanomethyl)-1-(4-methyl-4H-1,2,4-triazol-3-yl)cyclobutyl)phenyl)-6-(((1-methylcyclopropyl)amino)methyl)imidazo[1,2-a]pyridine-8-carboxamide] |
| 0.5 nM | 3.2 nM | Cn1cnnc1[C@]1(c2cccc(NC(=O)c3cc(CNC4(C)CC4)cc4c(Cl)cnn34)c2)C[C@H](C)C1 [Compound A96, 3-chloro-N-(3-((1s, 3s)-3-methyl-1-(4-methyl-4H-1,2,4-triazol-3-yl)cyclobutyl)phenyl)-5-(((1-methylcyclopropyl)amino)methyl)pyrazolo[1,5-a]pyridine-7-carboxamide] |
| 1.6 nM | 13 nM | C[C@H]1CCCN(Cc2cc(C(=O)Nc3cccc([C@]4(c5nncn5C)C[C@@H](CC#N)C4)c3)nc3sccc23)C1 [Compound B18, 4-{[(3S)-3-methylpiperidin-1-yl]methyl}-N-{3-[(1s, 3s)-3-(cyanomethyl)-1-(4-methyl-1,2,4-triazol-3-yl)cyclobutyl]phenyl}thieno[2,3-b]pyridine-6-carboxamide] |
| 0.8 nM | 20.7 nM | Cn1cnnc1[C@]1(c2cccc(NC(=O)c3cc(CNC4(C)CC4)cn4c(F)cnc34)c2)C[C@H](CC#N)C1 [Compound A17, N-(3-((1s, 3s)-3-(cyanomethyl)-1-(4-methyl-4H-1,2,4-triazol-3-yl)cyclobutyl)phenyl)-3-fluoro-6-(((1-methylcyclopropyl)amino)methyl)imidazo[1,2-a]pyridine-8-carboxamide] |
| 1.7 nM | 5.3 nM | Cn1cnnc1[C@]1(c2cccc(NC(=O)c3cc(CNCC4CCC(F)(F)C4)c4c(n3)C(C)(C)CC4)c2)C[C@H](CC#N)C1 (stereo partly shown) [Compound C16, N-(3-((1s, 3s)-3-(cyanomethyl)-1-(4-methyl-4H-1,2,4-triazol-3-yl)cyclobutyl)phenyl)-4-((((3,3-difluorocyclopentyl)methyl)amino)methyl)-7,7-dimethyl-6,7-dihydro-5H-cyclopenta[b]pyridine-2-carboxamide] |
| 0.6 nM | 4.1 nM | Cn1cnnc1[C@]1(c2cccc(NC(=O)c3cc(CNC4(C)CC4)cc4ccnn34)c2)C[C@H](C)C1 [Compound A91, N-(3-((1s, 3s)-3-methyl-1-(4-methyl-4H-1,2,4-triazol-3-yl)cyclobutyl)phenyl)-5-(((1-methylcyclopropyl)amino)methyl)pyrazolo[1,5-a]pyridine-7-carboxamide] |
| 3.7 nM | 15.8 nM | CC(C)CNCc1cc(C(=O)Nc2cncc([C@]3(c4nncn4C)C[C@@H](C)C3)c2)nc2c1CCC2(F)F [Compound C53, 7,7-difluoro-4-{[(2-methylpropyl)amino]methyl}-N-{5-[(1r, 3s)-3-methyl-1-(4-methyl-1,2,4-triazol-3-yl)cyclobutyl]pyridin-3-yl}-5H,6H-cyclopenta[b]pyridine-2-carboxamide] |
| 2.9 nM | 6.7 nM | Cc1cnc2c(C(=O)Nc3cncc([C@]4(c5nncn5C)C[C@@H](C)C4)c3)cc(CN3CC[C@H](F)[C@H](C)C3)cn12 [Compound A55, 6-{[(3R,4S)-4-fluoro-3-methylpiperidin-1-yl]methyl}-3-methyl-N-{5-[(1r, 3s)-3-methyl-1-(4-methyl-1,2,4-triazol-3-yl)cyclobutyl]pyridin-3-yl}imidazo[1,2-a]pyridine-8-carboxamide] |
| 2 nM | 6.6 nM | Cn1cnnc1[C@]1(c2cccc(NC(=O)c3cc(CNCC4CCCCC4)c4c(n3)C(C)(C)CC4)c2)C[C@H](CC#N)C1 [Compound C14, N-(3-((1s, 3s)-3-(cyanomethyl)-1-(4-methyl-4H-1,2,4-triazol-3-yl)cyclobutyl)phenyl)-4-(((cyclohexylmethyl)amino)methyl)-7,7-dimethyl-6,7-dihydro-5H-cyclopenta[b]pyridine-2-carboxamide] |
| 2.6 nM | 8.3 nM | Cn1cnnc1[C@]1(c2cncc(NC(=O)c3cc(CNC4(C)CCC4)cn4c(F)cnc34)c2)C[C@H](C)C1 [Compound A76, 3-fluoro-N-(5-((1s, 3s)-3-methyl-1-(4-methyl-4H-1,2,4-triazol-3-yl)cyclobutyl)pyridin-3-yl)-6-(((1-methylcyclobutyl)amino)methyl)imidazo[1,2-a]pyridine-8-carboxamide] |
| 3.9 nM | 32.4 nM | C[C@H]1CCCN(Cc2cc(C(=O)Nc3cccc([C@]4(c5nncn5C)C[C@@H](CC#N)C4)c3)c3ncc(F)n3c2)C1 [Compound A12, 3-fluoro-6-{[(3S)-3-methylpiperidin-1-yl]methyl}-N-{3-[(1s, 3s)-3-(cyanomethyl)-1-(4-methyl-1,2,4-triazol-3-yl)cyclobutyl]phenyl}imidazo[1,2-a]pyridine-8-carboxamide] |
| 1.4 nM | 6.1 nM | Cn1cnnc1[C@]1(c2cccc(NC(=O)c3cc(CNCC4(C)CCCC4)c4c(n3)C(C)(C)CN4)c2)C[C@H](CC#N)C1 [Compound C22, 3,3-dimethyl-7-({[(1-methylcyclopentyl)methyl]amino}methyl)-N-{3-[(1s, 3s)-3-(cyanomethyl)-1-(4-methyl-1,2,4-triazol-3-yl)cyclobutyl]phenyl}-1H,2H-pyrrolo[3,2-b]pyridine-5-carboxamide] |
| 2 nM | 7.7 nM | Cc1cnc2c(C(=O)Nc3cccc([C@]4(c5nncn5C)C[C@@H](C)C4)c3)cc(CNCC3CCC3)cn12 [Compound A53, 6-(((cyclobutylmethyl)amino)methyl)-3-methyl-N-(3-((1s, 3s)-3-methyl-1-(4-methyl-4H-1,2,4-triazol-3-yl)cyclobutyl)phenyl)imidazo[1,2-a]pyridine-8-carboxamide] |
| 0.5 nM | 5.9 nM | Cn1cnnc1[C@]1(c2cccc(NC(=O)c3cc(CNC4(C)CC4)cc4c(F)cnn34)c2)C[C@H](CC#N)C1 [Compound A94, N-(3-((1s, 3s)-3-(cyanomethyl)-1-(4-methyl-4H-1,2,4-triazol-3-yl)cyclobutyl)phenyl)-3-fluoro-5-(((1-methylcyclopropyl)amino)methyl)pyrazolo[1,5-a]pyridine-7-carboxamide] |
| 2.9 nM | 31 nM | C[C@H]1CCCN(Cc2cc(C(=O)Nc3cccc([C@]4(c5nncn5C)C[C@@H](CC#N)C4)c3)n3ncc(Cl)c3c2)C1 [Compound A21, 3-chloro-N-(3-((1s,3R)-3-(cyanomethyl)-1-(4-methyl-4H-1,2,4-triazol-3-yl)cyclobutyl)phenyl)-5-(((S)-3-methylpiperidin-1-yl)methyl)pyrazolo[1,5-a]pyridine-7-carboxamide] |
| 1.2 nM | 12 nM | Cn1cnnc1[C@]1(c2cccc(NC(=O)c3cc(CNC4(C)CC4)c4[nH]cc(F)c4n3)c2)C[C@H](CC#N)C1 [Compound B54, N-(3-((1s, 3s)-3-(cyanomethyl)-1-(4-methyl-4H-1,2,4-triazol-3-yl)cyclobutyl)phenyl)-3-fluoro-7-(((1-methylcyclopropyl)amino)methyl)-1H-pyrrolo[3,2-b]pyridine-5-carboxamide] |
| 1.2 nM | 2.8 nM | Cn1cnnc1[C@]1(c2cncc(NC(=O)c3cc(CNC4(C)CC4)cn4c(Cl)cnc34)c2)C[C@H](C)C1 [Compound A73, 3-chloro-N-(5-((1s, 3s)-3-methyl-1-(4-methyl-4H-1,2,4-triazol-3-yl)cyclobutyl)pyridin-3-yl)-6-(((1-methylcyclopropyl)amino)methyl)imidazo[1,2-a]pyridine-8-carboxamide] |
| 1.3 nM | 15 nM | Cn1ccc2nc(C(=O)Nc3cccc([C@]4(c5nncn5C)C[C@@H](CC#N)C4)c3)cc(CNC3(C)CC3)c21 [Compound B57, N-(3-((1s, 3s)-3-(cyanomethyl)-1-(4-methyl-4H-1,2,4-triazol-3-yl)cyclobutyl)phenyl)-1-methyl-7-(((1-methylcyclopropyl)amino)methyl)-1H-pyrrolo[3,2-b]pyridine-5-carboxamide] |
| 3.3 nM | 14.8 nM | Cn1cnnc1[C@]1(c2cncc(NC(=O)c3cc(CNCC4CCC4)c4c(n3)C(F)(F)CC4)c2)C[C@H](C)C1 [Compound C52, 4-{[(cyclobutylmethyl)amino]methyl}-7,7-difluoro-N-{5-[(1r, 3s)-3-methyl-1-(4-methyl-1,2,4-triazol-3-yl)cyclobutyl]pyridin-3-yl}-5H,6H-cyclopenta[b]pyridine-2-carboxamide] |
